Reference: patent publication US20260306460A1, “COMPOSITION FOR REMOVING AND INHIBITING SENESCENT CELLS, AND USES THEREOF” (LIFECEUTIX CO., LTD., priority 2023, published 2026)

Legend:
[1] = system: HMGN1 secreted from senescent A549 cells; experiment: HMGN1 secretion (ELISA) from senescent A549 cells, Example 18, Table 14; type: cell-based, human; settings: doxorubicin-senescent A549, without test compound (DMSO) = 100%; 30 μM (LX-5211, LX-5433, LX-6530, LX-6800, LX-9105, LX-9118, LX-9131, LX-9136, LX-9302, LX-9321, LX-9565, LX-9602 at 90 μM; LX-9336 at 2.4 mM)
Protocol: On the other hand, in cancer cells treated with doxorubicin, where senescence was induced, the amount of HMGN1 measured under conditions where cells were not treated with the test compound was calculated as 100%, and the amount of HMGN1 was measured under conditions where the senescent cancer cells were treated with the test compound.

[2] = system: HMGN1 secreted from senescent cells; experiment: HMGN1 secretion (ELISA) from doxorubicin-induced senescent cells, Example 17; type: cell-based, human; settings: senescent untreated = 100%; 30 μM; 90 μM for LX-5211, 5433, 6530, 9105, 9118, 9321, 9602; 2.4 mM for LX-9336
[3] = system: senescent cells; experiment: Viability of senescent cells (CellTiter-Glo), Example 17, Table 13; settings: for Survival (%): doxorubicin-induced senescent cells, 0 μM = 100
Protocol: Cells induced to undergo senescence by doxorubicin treatment were treated with test compound at designated concentrations and measured using the CellTiter-Glo Luminescent Cell Viability Assay (Promega).

[4] = system: senescent A549 cells; experiment: Viability of senescent A549 cells (CellTiter-Glo), Example 18, Table 15; settings: for Survival (%): doxorubicin-induced senescent A549 cells, 0 μM = 100%
Protocol: Senescence-induced cancer cells treated with doxorubicin were treated with the test compound at designated concentrations, and cell viability was measured using the CellTiter-Glo Luminescent Cell Viability Assay (Promega).

[5] = system: obesity-induced aged C57BL6J mice; experiment: Anxiety, depression, lethargy (open field test) in obesity-aged mice, Example 23-4, Table 44; type: in vivo, mouse; settings: obesity-aged mice
Protocol: 15-week-old male C57BL6J mice (The Jackson Laboratory) were induced to obesity by a high-fat diet using the same method as in Example 9-1 WO2023-085787 A1. After acclimation to the experimental environment for one week, the mice were randomly assigned to experimental and control groups. […] LX-3002 was mixed in distilled water with 4% DMSO, 30% PEG300, and 5% Tween80 and administered orally at a concentration of 10 mg/kg daily for 21 days. LX-5701 was mixed in PBS and administered orally at a concentration of 360 mg/kg daily for 21 days. LX-6807 was mixed in saline and administered intraperitoneally at a concentration of 1 mg/kg daily for 21 days. The control group received only the solution in the same volume. After the end of drug administration, the methods described in each example below were performed.
It was determined that anxiety and depression caused by obesity are not causally related to increased body weight, but rather are caused by the accumulation of senescent cells. Accordingly, an activity assessment (open field test) was performed using the same method as in Example 7-7 of WO2023-085787 A1 to analyze lethargy caused by anxiety and depression caused by obesity in mice. The table below quantitatively represents activity, a criterion for assessing lethargy due to anxiety and depression, under conditions in which aging was induced by obesity and the test compound was not administered or was administered. The activity assessment after obesity-induced aging was calculated as 100% and compared with the activity assessment after test compound treatment.

[6] = system: naturally aged C57BL6J mice; experiment: Geriatric depression and anxiety in aged mice, Example 21-8; type: in vivo, mouse; settings: aged mice
Text: The amount of senescent-associated secretory factor (SASP) in serum and tissues collected from mice of Examples 21-5 and 21-6 was reduced by treatment with LX-5701, LX-2101, or LX-2102. It was confirmed that removing senescent cells, which increase with aging in mice, and effectively reducing the amount of senescent-associated secretory factor (SASP) can improve symptoms of geriatric depression and anxiety.

[7] = system: naturally aged mice; experiment: Anti-aging evaluation in naturally aged mice, Example 31, Table 55; type: in vivo, mouse; settings: for Femur Ctsk mRNA / Kidney Agtr1a mRNA / Liver IL6 mRNA / Liver MMP3 mRNA / Liver p16 mRNA / Open Field Test Time in Center: untreated = 100%; for Heart Sur2a mRNA / Joint Col2a1 mRNA / Skin Col1a1 mRNA / Skin SDF1 mRNA: untreated = 1.0; for Muscle Mass: untreated 0.64 g; for Fat Mass: untreated 0.82 g; for Cataract incidence: untreated 83%;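 on all read-outs here: Vehicle-dosed control mice received solution alone at matching volume, values compare test-compound-treated aged mice against that control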
[8] = system: bleomycin-induced pulmonary fibrosis mice; experiment: Bleomycin-induced pulmonary fibrosis mice, Example 31, Table 56; type: in vivo, mouse; settings: untreated = 100%
In short: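 Mice with bleomycin-induced pulmonary fibrosis, untreated or given test compound, with vehicle-only controls. Lung tissue collected for RNA extraction and qRT-PCR analysis.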

[9] = system: carbon tetrachloride-induced liver fibrosis mice; experiment: Carbon tetrachloride-induced liver fibrosis mice, Example 31, Table 57; type: in vivo, mouse; settings: CCl4-induced liver fibrosis mice, untreated = 100%
In short: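 Mice with induced hepatic fibrosis received either the test compound or, as controls, an equal volume of vehicle solution alone. Once dosing ended, liver tissue was harvested and total RNA was isolated. cDNA was synthesized from this RNA, and quantitative RT-PCR was run on it to measure hepatic mRNA levels of the fibrosis- and senescence-related genes.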

[10] = Homo sapiens, read-out: Survival (%)
[11] = Homo sapiens, A549, read-out: Survival (%)

Compound | HMGN1 [1] [%] | HMGN1 [2] [%] | Survival (%) ([3]; 1.1 μM) | Survival (%) ([3]; 10 μM) | Survival (%) ([3]; 30 μM) | Survival (%) ([3]; […]) | Survival (%) ([4]; 1.1 μM) | Survival (%) ([4]; 10 μM) | Survival (%) ([4]; 30 μM) | Survival (%) ([4]; […]) | geriatric depression [5] | viability at 1.1 µM [3, 10] [%] | viability at 10 µM [3, 10] [%] | viability at 30 µM [3, 10] [%] | amount of SASP, p16, SA-β-gal, lipofuscin [6] | symptoms of geriatric depression and anxiety [6] | viability at 1.1 µM [4, 11] [%] | viability at 10 µM [4, 11] [%] | viability at 30 µM [4, 11] [%] | further results
Sulforadex [LX-7104] | 246 | 287 | 88.5 | 45.7 | 2.8 | 75.7 | 103.3 | 58.7 | 18.1 | 81.2 | – | – | – | – | – | – | – | – | – | –
Cc1nc(C(=O)NCC(=O)O)c(O)c2ccc(Oc3ccccc3)cc12 [LX-6806, Roxadustat] | – | – | – | – | – | – | – | – | – | – | similarly improving geriatric depression | 95.4 | 61.2 | 32.8 | reduced | improved | 106 | 67.2 | 23.5 | –
Batiraxcept [LX-6982] | 306 | 234 | 95.1 | 74.6 | 10.5 | 86.8 | 90.9 | 77.8 | 6.9 | 88.9 | – | – | – | – | – | – | – | – | – | –
CCCCCC/C=C\CCCCCCCCCC(=O)N[C@H]1[C@H](OC[C@H]2O[C@H](OP(=O)([O-])[O-])[C@H](NC(=O)CC(=O)CCCCCCCCCCC)[C@@H](OCCCCCCCCCC)[C@@H]2O)O[C@H](COC)[C@@H](OP(=O)([O-])[O-])[C@@H]1OCC[C@@H](CCCCCCC)OC.[Na+].[Na+].[Na+].[Na+] [LX-9136, Eritoran tetrasodium] | 296 | 263 | 84.6 | 71.1 | 23.1 | 76.9 | 91.1 | 70.9 | 44.8 | 83.4 | – | – | – | – | – | – | – | – | – | Survival (%) ([4]; 90 μM): 6.7%
Farletuzumab [LX-7621] | 237 | 304 | 86.3 | 78.2 | 50.2 | 82.1 | 91.5 | 69.7 | 14.4 | 78.4 | – | – | – | – | – | – | – | – | – | –
CN(C)c1cccc(-c2c3c(=O)n(-c4ccccc4Cl)[nH]c3cc(=O)n2C)c1 [LX-9744, Setanaxib] | – | – | – | – | – | – | – | – | – | – | similarly improving geriatric depression | 101 | 69.8 | 22.3 | reduced | improved | 91.8 | 73.5 | 25.8 | Femur Ctsk mRNA [7]: 57%; Heart Sur2a mRNA [7]: 2.3 fold; Joint Col2a1 mRNA [7]: 2.4 fold; Kidney Agtr1a mRNA [7]: 65%; Liver IL6 mRNA [7]: 58%; Liver MMP3 mRNA [7]: 49%; Liver p16 mRNA [7]: 75%; Open Field Test Time in Center [7]: 171%; Skin Col1a1 mRNA [7]: 2.3 Fold; Skin SDF1 mRNA [7]: 1.7 fold; Muscle Mass [7]: 0.69 g; Fat Mass [7]: 0.84 g; Cataract incidence [7]: 78%; Lung p16 mRNA [8]: 73 (±3.1) %; Col1a1 mRNA [8]: 64 (±3.3) %; Liver p16 mRNA [9]: 71 (±3.1) %; Col1a1 mRNA [9]: 48 (±3.5) %
CC(=O)[O-].CC(=O)[O-].CCc1c(CC)c2cc3nc(cnc4cc(OCCOCCOCCOC)c(OCCOCCOCCOC)cc4ncc4nc(cc1[n-]2)C(CCCO)=C4C)C(C)=C3CCCO.O.[Gd+3] [LX-5211, Motexafin Gadolinium] | 262 | 253 | 97.6 | 92.7 | 87.1 | 95.2 | 102.8 | 88.1 | 49.2 | 98.8 | – | – | – | – | – | – | – | – | – | Survival (%) ([3]; 90 μM): 22.7%; Survival (%) ([4]; 90 μM): 16.6%
Nc1ccc(O)c(C(=O)O)c1 [LX-9118, 5-aminosalicylic acid] | – | – | – | – | – | – | – | – | – | – | similarly improving geriatric depression | 102 | 94.1 | 62.8 | reduced | improved | 105 | 81.7 | 51.2 | Femur Ctsk mRNA [7]: 75%; Heart Sur2a mRNA [7]: 1.7 fold; Joint Col2a1 mRNA [7]: 1.8 fold; Kidney Agtr1a mRNA [7]: 71%; Liver IL6 mRNA [7]: 62%; Liver MMP3 mRNA [7]: 83%; Liver p16 mRNA [7]: 74%; Open Field Test Time in Center [7]: 199%; Skin Col1a1 mRNA [7]: 1.9 Fold; Skin SDF1 mRNA [7]: 1.8 fold; Muscle Mass [7]: 0.73 g; Fat Mass [7]: 0.88 g; Cataract incidence [7]: 62%; Lung p16 mRNA [8]: 76 (±4.6) %; Col1a1 mRNA [8]: 58 (±3.5) %; Liver p16 mRNA [9]: 69 (±2.4) %; Col1a1 mRNA [9]: 64 (±2.0) %; viability at 90 µM [3, 10]: 4.9%; viability at 90 µM [4, 11]: 3.4%
Mirvetuximab [LX-7622] | – | 293 | 99.1 | 75.7 | 17.7 | 94.1 | 88.6 | 71.1 | 4.3 | 81.0 | – | – | – | – | – | – | – | – | – | –
